Laboratory results: US9670212B2, “Inhibitors of PI3K-delta and methods of their use and manufacture” (Exelixis, Inc., priority 2010, dated 2017)

Biological target: PI3K delta (Homo sapiens (Human), UniProt O00329)
Test: Luciferase-coupled chemiluminescence kinase assay (KinaseGlo, ATP consumption)
Format: biochemical
Protocol: Kinase activity and compound inhibition were investigated using one or more of the assay formats described below. The ATP concentrations used in the various assays were approximately equal to or less than the KM for each of the respective kinases. Dose-response experiments were performed using an intra-plate dilution scheme with 10 different inhibitor concentrations in a 384-well microtiter plate. […] Typically N should approximate unity. Curve fitting was performed using XLFit or ActivityBase. Luciferase-Coupled Chemiluminescence Assay Protocol
Kinase activity is measured as the percent of ATP consumed following the kinase reaction using luciferase-luciferin-coupled chemiluminescence. […] Kinase reactions were initiated by combining test compounds, kinase, and ATP in a 20 μL volume (6 μL volume for 1536-well plate). The reaction mixture was incubated at ambient temperature for 2 h. Following the kinase reaction, a 20 μL (or 3 μL for 1536-well plate) aliquot of KinaseGlo (Promega) was added and the chemiluminescence signal measured using an EnVision plate reader (Perkin Elmer).

Chain of PI3K delta (O00329 whole entry): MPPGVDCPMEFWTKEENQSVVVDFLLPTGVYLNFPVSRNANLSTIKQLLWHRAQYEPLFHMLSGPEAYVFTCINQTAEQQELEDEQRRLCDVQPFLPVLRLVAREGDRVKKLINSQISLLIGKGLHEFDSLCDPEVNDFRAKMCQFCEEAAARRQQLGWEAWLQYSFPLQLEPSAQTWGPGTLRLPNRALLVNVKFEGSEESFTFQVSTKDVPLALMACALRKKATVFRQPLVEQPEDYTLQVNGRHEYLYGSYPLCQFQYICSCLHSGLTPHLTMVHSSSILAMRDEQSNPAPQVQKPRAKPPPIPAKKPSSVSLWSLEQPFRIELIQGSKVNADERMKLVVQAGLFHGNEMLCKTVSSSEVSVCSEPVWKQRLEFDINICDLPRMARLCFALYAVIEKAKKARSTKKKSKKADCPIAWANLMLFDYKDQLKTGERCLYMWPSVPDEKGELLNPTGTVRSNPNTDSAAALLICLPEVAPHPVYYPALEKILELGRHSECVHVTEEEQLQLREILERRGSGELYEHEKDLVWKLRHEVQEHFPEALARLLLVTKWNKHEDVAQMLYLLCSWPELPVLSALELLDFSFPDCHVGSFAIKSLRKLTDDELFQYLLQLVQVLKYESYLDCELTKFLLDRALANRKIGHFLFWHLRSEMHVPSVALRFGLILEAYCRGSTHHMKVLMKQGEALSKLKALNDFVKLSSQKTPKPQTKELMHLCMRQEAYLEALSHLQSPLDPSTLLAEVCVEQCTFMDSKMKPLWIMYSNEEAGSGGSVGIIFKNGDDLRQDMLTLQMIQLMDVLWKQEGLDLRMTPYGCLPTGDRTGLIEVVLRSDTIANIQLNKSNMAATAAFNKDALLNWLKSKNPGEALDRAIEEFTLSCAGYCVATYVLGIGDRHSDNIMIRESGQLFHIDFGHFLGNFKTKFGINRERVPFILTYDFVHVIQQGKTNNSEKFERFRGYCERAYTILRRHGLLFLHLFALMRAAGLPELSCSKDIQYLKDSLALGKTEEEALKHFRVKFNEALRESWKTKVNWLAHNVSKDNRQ
Chain of PI3K delta (P27986 whole entry partner): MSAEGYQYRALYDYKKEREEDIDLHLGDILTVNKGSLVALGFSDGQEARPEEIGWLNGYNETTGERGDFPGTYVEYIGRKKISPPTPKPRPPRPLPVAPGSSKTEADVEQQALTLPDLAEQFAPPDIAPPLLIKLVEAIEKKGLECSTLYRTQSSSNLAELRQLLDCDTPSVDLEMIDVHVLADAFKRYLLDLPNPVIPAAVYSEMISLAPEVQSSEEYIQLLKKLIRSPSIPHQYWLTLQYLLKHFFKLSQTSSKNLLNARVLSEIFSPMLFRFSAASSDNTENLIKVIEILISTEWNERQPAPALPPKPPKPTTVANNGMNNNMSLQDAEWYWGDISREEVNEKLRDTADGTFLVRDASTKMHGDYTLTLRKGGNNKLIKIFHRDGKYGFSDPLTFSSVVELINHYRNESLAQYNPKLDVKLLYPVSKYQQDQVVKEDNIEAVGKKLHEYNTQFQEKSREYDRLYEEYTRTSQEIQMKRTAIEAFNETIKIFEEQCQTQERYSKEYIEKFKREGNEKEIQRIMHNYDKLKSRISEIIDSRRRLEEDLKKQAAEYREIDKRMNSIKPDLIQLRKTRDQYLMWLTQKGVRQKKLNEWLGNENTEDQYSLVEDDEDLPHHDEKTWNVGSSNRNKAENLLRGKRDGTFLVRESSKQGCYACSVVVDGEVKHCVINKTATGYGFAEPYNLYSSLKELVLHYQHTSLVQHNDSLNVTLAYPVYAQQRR

SMILES	IC50
Cc1cccc2cc(CNC(=O)c3nccnc3N)c(N(C)CCN(C)C(=O)c3cccnc3)nc12 [Compound 80, 3-amino-N-{[8-methyl-2-(methyl{2-[methyl(pyridin-3-ylcarbonyl)amino]ethyl}amino)quinolin-3-yl]methyl}pyrazine-2-carboxamide]	250 to 500 nM
Cc1cccc2cc(CNC(=O)c3nccnc3N)c(N(C)CCN(C)C(=O)c3ccccn3)nc12 [Compound 81, 3-amino-N-{[8-methyl-2-(methyl{2-[methyl(pyridin-2-ylcarbonyl)amino]ethyl}amino)quinolin-3-yl]methyl}pyrazine-2-carboxamide]	250 to 500 nM
Cc1cccc2cc(CNC(=O)c3nccnc3N)c(N(C)CCc3ccccn3)nc12 [Compound 88, 3-amino-N-({8-methyl-2-[methyl(2-pyridin-2-ylethyl)amino]quinolin-3-yl}methyl)pyrazine-2-carboxamide]	500 to 1500 nM
Cc1cccc2cc(CNC(=O)c3nccnc3N)c(N(C)CCN(C)c3cnccn3)nc12 [Compound 90, 3-amino-N-{[8-methyl-2-(methyl{2-[methyl(pyrazin-2-yl)amino]ethyl}amino)quinolin-3-yl]methyl}pyrazine-2-carboxamide]	500 to 1500 nM
Nc1nccnc1C(=O)NCc1nc2ccccc2cc1-c1cscn1 [Compound 91, 3-amino-N-{[3-(1,3-thiazol-4-yl)quinolin-2-yl]methyl}pyrazine-2-carboxamide]	500 to 1500 nM
Nc1nccnc1C(=O)NCc1nc2ccccc2cc1Br [Compound 93, 3-amino-N-[(3-bromoquinolin-2-yl)methyl]pyrazine-2-carboxamide]	500 to 1500 nM
Cc1cccc2cc(CNC(=O)c3nccnc3N)c(NCc3cccnc3)nc12 [Compound 95, 3-amino-N-({8-methyl-2-[(pyridin-3-ylmethyl)amino]quinolin-3-yl}methyl)pyrazine-2-carboxamide]	500 to 1500 nM
Cc1cccc2cc(CNC(=O)c3nccnc3N)c(NCCc3ccccn3)nc12 [Compound 96, 3-amino-N-({8-methyl-2-[(2-pyridin-2-ylethyl)amino]quinolin-3-yl}methyl)pyrazine-2-carboxamide]	500 to 1500 nM
Cc1cccc2cc(CNC(=O)c3nccnc3N)c(NCCc3cccnc3)nc12 [Compound 97, 3-amino-N-({8-methyl-2-[(2-pyridin-3-ylethyl)amino]quinolin-3-yl}methyl)pyrazine-2-carboxamide]	500 to 1500 nM
Cc1cccc2cc(CNC(=O)c3nccnc3N)c(N(C)C3CCN(C)CC3)nc12 [Compound 99, 3-amino-N-({8-methyl-2-[methyl(1-methylpiperidin-4-yl)amino]quinolin-3-yl}methyl)pyrazine-2-carboxamide]	50 to 250 nM
COCCN(C)c1nc2c(C)cccc2cc1CNC(=O)c1nccnc1N [Compound 104, 3-amino-N-[(8-methyl-2-{methyl[2-(methyloxy)ethyl]amino}quinolin-3-yl)methyl]pyrazine-2-carboxamide]	500 to 1500 nM
Cc1ccccc1-c1cc2ccccc2nc1CNC(=O)c1ncc(N2CCOCC2)nc1N [Compound 105, 3-amino-N-{[3-(2-methylphenyl)quinolin-2-yl]methyl}-5-morpholin-4-ylpyrazine-2-carboxamide]	500 to 1500 nM
Cc1ccccc1-c1cc2ccccc2nc1CNC(=O)c1ncc(Cl)nc1N [Compound 107, 3-amino-5-chloro-N-{[3-(2-methylphenyl)quinolin-2-yl]methyl}pyrazine-2-carboxamide]	500 to 1500 nM
Cc1ccccc1-c1cc2ccccc2nc1CNC(=O)c1cncnc1N [Compound 108, 4-amino-N-{[3-(2-methylphenyl)quinolin-2-yl]methyl}pyrimidine-5-carboxamide]	500 to 1500 nM
Cc1cccc2cc(CNC(=O)c3nccnc3N)c(N(C)CCN(C)C(=O)c3cncn3C)nc12 [Compound 110, 3-amino-N-({8-methyl-2-[methyl(2-{methyl[(1-methyl-1H-imidazol-5-yl)carbonyl]amino}ethyl)amino]quinolin-3-yl}methyl)pyrazine-2-carboxamide]	50 to 250 nM
Cc1cccc2cc(CNC(=O)c3nccnc3N)c(-n3ccnc3)nc12 [Compound 111, 3-amino-N-{[2-(1H-imidazol-1-yl)-8-methylquinolin-3-yl]methyl}pyrazine-2-carboxamide]	250 to 500 nM
Cc1cccc2cc(CNC(=O)c3nccnc3N)c(-n3cnc4ccccc43)nc12 [Compound 112, 3-amino-N-{[2-(1H-benzimidazol-1-yl)-8-methylquinolin-3-yl]methyl}pyrazine-2-carboxamide]	500 to 1500 nM
Cc1cccc2cc(CNC(=O)c3nccnc3N)c(N(C)CCN(C)C(=O)[C@@H]3CCCN3C)nc12 [Compound 113, 3-amino-N-{[8-methyl-2-(methyl{2-[methyl(1-methyl-L-prolyl)amino]ethyl}amino)quinolin-3-yl]methyl}pyrazine-2-carboxamide]	50 to 250 nM
Cc1cccc2cc(CNC(=O)c3nccnc3N)c(N(C)CCN(C)C(=O)CN(C)C)nc12 [Compound 114, 3-amino-N-({2-[{2-[(N,N-dimethylglycyl)(methyl)amino]ethyl}(methyl)amino]-8-methylquinolin-3-yl}methyl)pyrazine-2-carboxamide]	50 to 250 nM

Further lines, results first:

IC50	SMILES
50 to 250 nM	Cc1cccc2cc(CNC(=O)c3nccnc3N)c(N(C)CCN(C)C(=O)c3ccncc3)nc12 [Compound 79, 3-amino-N-{[8-methyl-2-(methyl{2-[methyl(pyridin-4-ylcarbonyl)amino]ethyl}amino)quinolin-3-yl]methyl}pyrazine-2-carboxamide]
< 50 nM	Cc1cccc2cc(CNC(=O)c3nccnc3N)c(N(C)CCN(C)Cc3cccnc3)nc12 [Compound 83, 3-amino-N-{[8-methyl-2-(methyl{2-[methyl(pyridin-3-ylmethyl)amino]ethyl}amino)quinolin-3-yl]methyl}pyrazine-2-carboxamide]
50 to 250 nM	Cc1cccc2cc(CNC(=O)c3nccnc3N)c(N(C)CCN(C)CC#N)nc12 [Compound 84, 3-amino-N-({2-[{2-[(cyanomethyl)(methyl)amino]ethyl}(methyl)amino]-8-methylquinolin-3-yl}methyl)pyrazine-2-carboxamide]
< 50 nM	Cc1cccc2cc(CNC(=O)c3nccnc3N)c(N(C)CCN(C)C(=O)Cn3ccnc3)nc12 [Compound 85, 3-amino-N-({2-[{2-[(1H-imidazol-1-ylacetyl)(methyl)amino]ethyl}(methyl)amino]-8-methylquinolin-3-yl}methyl)pyrazine-2-carboxamide]
< 50 nM	Cc1cccc2cc(CNC(=O)c3nccnc3N)c(N(C)CCN(C)C(=O)Cn3ccnc3C)nc12 [Compound 86, 3-amino-N-({8-methyl-2-[methyl(2-{methyl[(2-methyl-1H-imidazol-1-yl)acetyl]amino}ethyl)amino]quinolin-3-yl}methyl)pyrazine-2-carboxamide]
50 to 250 nM	Cc1cccc2cc(CNC(=O)c3nccnc3N)c(N(C)Cc3cccnc3)nc12 [Compound 87, 3-amino-N-({8-methyl-2-[methyl(pyridin-3-ylmethyl)amino]quinolin-3-yl}methyl)pyrazine-2-carboxamide]
< 50 nM	Cc1cccc2cc(CNC(=O)c3nccnc3N)c(N(C)CCN(C)CC(=O)N(C)C)nc12 [Compound 89, 3-amino-N-({2-[(2-{[2-(dimethylamino)-2-oxoethyl](methyl)amino}ethyl)(methyl)amino]-8-methylquinolin-3-yl}methyl)pyrazine-2-carboxamide]
50 to 250 nM	CN(C)Cc1ccccc1-c1cc2ccccc2nc1CNC(=O)c1nccnc1N [Compound 92, 3-amino-N-[(3-{2-[(dimethylamino)methyl]phenyl}quinolin-2-yl)methyl]pyrazine-2-carboxamide]
50 to 250 nM	Cc1cccc2cc(CNC(=O)c3nccnc3N)c(N(C)CCN(C)C(=O)Cn3nccn3)nc12 [Compound 94, 3-amino-N-{[8-methyl-2-(methyl{2-[methyl(2H-1,2,3-triazol-2-ylacetyl)amino]ethyl}amino)quinolin-3-yl]methyl}pyrazine-2-carboxamide]
50 to 250 nM	Cc1cccc2cc(CNC(=O)c3nccnc3N)c(N(C)C3CCN(C)C3)nc12 (stereo not drawn) [Compound 98, 3-amino-N-({8-methyl-2-[methyl(1-methylpyrrolidin-3-yl)amino]quinolin-3-yl}methyl)pyrazine-2-carboxamide]
< 50 nM	Cc1cccc2cc(CNC(=O)c3nccnc3N)c(N(C)CCN(C)C(=O)Cn3ccnn3)nc12 [Compound 100, 3-amino-N-{[8-methyl-2-(methyl{2-[methyl(1H-1,2,3-triazol-1-ylacetyl)amino]ethyl}amino)quinolin-3-yl]methyl}pyrazine-2-carboxamide]
50 to 250 nM	Cc1cccc2cc(CNC(=O)c3nccnc3N)c(N(C)CCN(C)S(C)(=O)=O)nc12 [Compound 101, 3-amino-N-{[8-methyl-2-(methyl{2-[methyl(methylsulfonyl)amino]ethyl}amino)quinolin-3-yl]methyl}pyrazine-2-carboxamide]
50 to 250 nM	Cc1cccc2cc(CNC(=O)c3nccnc3N)c(N(C)CCN(C)C(=O)[C@H]3CCCN3)nc12 [Compound 102, 3-amino-N-{[8-methyl-2-(methyl{2-[methyl(D-prolyl)amino]ethyl}amino)quinolin-3-yl]methyl}pyrazine-2-carboxamide]
50 to 250 nM	Cc1cccc2cc(CNC(=O)c3nccnc3N)c(N(C)CCN(C)C(=O)CN3CCCC3)nc12 [Compound 109, 3-amino-N-{[8-methyl-2-(methyl{2-[methyl(pyrrolidin-1-ylacetyl)amino]ethyl}amino)quinolin-3-yl]methyl}pyrazine-2-carboxamide]
